Among the data in patent US8569316B2, “Pyrimido [5,4-D] pyrimidine derivatives for the inhibition of tyrosine kinases” (Boehringer Ingelheim International GmbH, priority 2009, dated 2013) are IC50 values, retold here.

For this test, the target named is B-Raf (V600E)-kinase (Homo sapiens (Human), UniProt P15056, V600E). Nature of the test: Kinase test B-Raf (V600E). Format: biochemical. Particulars: 250 μM ATP, biotinylated MEK1 substrate. How it is done: In a dilution series 10 μL of test substance solution are placed in a multiwell plate. The dilution series is selected so that generally a range of concentrations of 2 μM to 0.128 nM or 0.017 nM is covered. If necessary the initial concentration of 2 μM is changed to 50 μM, 10 μM or 0.4 μM or 0.2857 μM and further dilution is carried out accordingly. The final concentration of DMSO is 5%. 10 μL of the B-Raf (V600E)-kinase solution are pipetted in (containing 0.5 ng B-Raf (V600E)-kinase in 20 mM Tris-HCl pH 7.5, 0.1 mM EDTA, 0.1 mM EGTA, 0.286 mM sodium orthovanadate, 10% glycerol, 1 mg/mL bovine serum albumin, 1 mM dithiothreitol) and the mixture is incubated for 1 h at RT under with shaking. The kinase reaction is started by the addition of 20 μL ATP solution [final concentration: 250 μM ATP, 30 mM Tris-HCl pH 7.5, 0.02% Brij, 0.2 mM sodium orthovanadate, 10 mM magnesium acetate, phosphatase cocktail (Sigma, #P2850, dilution recommended by the manufacturer), 0.1 mM EGTA] and 10 μL MEK1 solution [containing 50 ng biotinylated MEK1 (prepared from purified MEK1 according to standard procedure, e.g. with EZ-Link Sulpho-NHS-LC-Biotin reagent, Pierce, #21335) in 50 mM Hepes pH 7.5, 150 mM NaCl, 10% glycerol, 0.02% Brij-35, 0.2 mM PMSF, 0.2 mM benzamidine] and carried out for 60 min at RT with constant shaking. The reaction is stopped by the addition of 12 μL of a 100 mM EDTA solution and incubation is continued for a further 5 min. 55 μL of the reaction solution are transferred into a streptavidin-coated plate (e.g. Streptawell HighBond, Roche, #11989685001) and shaken gently for 1 h at RT, in order to bind biotinylated MEK1 to the plate. After elimination of the liquid the plate is washed five times with 200 μL of 1×PBS and 100 μL solution of primary antibody plus europium-labelled secondary antibody [Anti Phospho-MEK (Ser217/221), Cell Signaling, #9121 and Eu-N1 labeled goat-anti-rabbit antibody, Perkin Elmer, #AD0105], the primary antibody is diluted 1:2000 and the secondary antibody is diluted to 0.4-0.5 μg/mL in Delfia Assay Buffer (Perkin Elmer, #1244-111). After 1 h shaking at RT the solution is poured away and washed five times with 200 μL Delfia Wash Buffer (Perkin Elmer, #4010-0010/#1244-114). After the addition of 200 μL Enhancement Solution (Perkin Elmer, #4001-0010/#1244-105) the mixture is shaken for 10 min at RT and then measured in a Wallac Victor using the program “Delfia Time Resolved Fluorescence (Europium)”. IC50 values are obtained from these dosage-activity curves using a software program (GraphPadPrizm).
Sequence of B-Raf (V600E)-kinase (P15056 whole entry V600E): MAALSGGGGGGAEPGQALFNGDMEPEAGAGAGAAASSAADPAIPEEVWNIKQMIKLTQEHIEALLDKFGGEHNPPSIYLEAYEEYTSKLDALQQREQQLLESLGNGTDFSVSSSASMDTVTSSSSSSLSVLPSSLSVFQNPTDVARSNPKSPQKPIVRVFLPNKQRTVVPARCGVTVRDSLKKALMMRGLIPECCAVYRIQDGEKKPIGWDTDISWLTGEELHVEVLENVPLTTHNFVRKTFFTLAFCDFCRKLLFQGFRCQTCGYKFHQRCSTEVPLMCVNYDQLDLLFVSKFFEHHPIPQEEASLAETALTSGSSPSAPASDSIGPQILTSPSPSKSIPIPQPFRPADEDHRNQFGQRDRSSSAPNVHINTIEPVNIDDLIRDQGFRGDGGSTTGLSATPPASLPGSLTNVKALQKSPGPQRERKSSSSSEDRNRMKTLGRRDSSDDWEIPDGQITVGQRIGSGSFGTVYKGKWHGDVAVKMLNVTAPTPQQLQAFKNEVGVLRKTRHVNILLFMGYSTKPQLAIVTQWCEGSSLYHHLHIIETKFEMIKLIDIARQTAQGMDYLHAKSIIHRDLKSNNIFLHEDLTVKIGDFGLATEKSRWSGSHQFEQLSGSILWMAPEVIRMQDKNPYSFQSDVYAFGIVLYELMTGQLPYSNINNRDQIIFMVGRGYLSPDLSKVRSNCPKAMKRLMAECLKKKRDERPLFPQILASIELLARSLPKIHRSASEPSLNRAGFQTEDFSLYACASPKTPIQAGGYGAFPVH

SMILES strings stand for the structures.

The IC50 is the concentration that gives 50% inhibition. The low end stands for greater potency in that assay, the high end for weaker potency in that assay. In turn, `COc1c(NC(=O)c2ccc(C)c(Nc3ncnc4ccc(CC5CCN(CC6CC6)CC5)nc34)c2)cc(C(C)(C)C)cc1NS(C)(=O)=O` [III-47] had an IC50 of 504 nM. In the case of `CCCN1CCC(Cc2ccc3ncnc(Nc4cc(C(=O)Nc5cc(C(C)(C)C)cc(NS(C)(=O)=O)c5OC)ccc4C)c3n2)CC1` [III-48] it was 583 nM. For `COCCN1CCC(Cc2ccc3ncnc(Nc4cc(C(=O)Nc5cc(C(C)(C)C)cc(NS(C)(=O)=O)c5OC)ccc4C)c3n2)CC1` [III-49] the value was 496 nM; for `CCOCCN1CCC(Cc2ccc3ncnc(Nc4cc(C(=O)Nc5cc(C(C)(C)C)cc(NS(C)(=O)=O)c5OC)ccc4C)c3n2)CC1` [III-50], 479 nM; for `Cc1ccc(C(=O)Nc2cc(C(C)(C)C)on2)cc1Nc1ncnc2ccc(C3=CCNCC3)nc12` [III-51], 23 nM. For `COCCN1CCN(c2ccc3ncnc(Sc4cc(C(=O)Nc5cccc(C(C)(C)C#N)c5)ccc4C)c3n2)CC1` [III-52] the value was 261 nM; for `COCCN1CCN(c2ccc3ncnc(Sc4cc(C(=O)Nc5cc(N6CCN(C)CC6)cc(C(F)(F)F)c5)ccc4C)c3n2)CC1` [III-53], 190 nM. As to `COCCN1CCN(c2ccc3ncnc(Sc4cc(C(=O)Nc5cc(C(C)(C)C)on5)ccc4C)c3n2)CC1` [III-54], the IC50 amounted to 269 nM. For `COCCN1CCN(c2ccc3ncnc(Sc4cc(C(=O)Nc5cc(C(C)(C)C)cc(NS(C)(=O)=O)c5OC)ccc4C)c3n2)CC1` [III-55] the value was 1620 nM. Regarding `Cc1ccc(NC(=O)c2cccc(C(C)(C)C#N)c2)cc1Nc1ncnc2ccc(N3CCOCC3)nc12` [IV-1], the IC50 stood at 4 nM. For `Cc1ccc(NC(=O)c2cccc(C(C)(C)C#N)c2)cc1Nc1ncnc2ccc(N3CCN(C)CC3)nc12` [IV-2] the value was 8 nM; for `COCCN1CCN(c2ccc3ncnc(Nc4cc(NC(=O)c5cccc(C(C)(C)C#N)c5)ccc4C)c3n2)CC1` [IV-3], 18 nM. For `Cc1ccc(NC(=O)c2cccc(C(C)(C)C#N)c2)cc1Nc1ncnc2ccc(N3CC[C@H](F)C3)nc12` [IV-4] the value was 11 nM; for `Cc1ccc(NC(=O)c2cccc(C(C)(C)C#N)c2)cc1Nc1ncnc2ccc(N[C@H]3CCOC3)nc12` [IV-5], 5 nM.
